Reference: patent US4576956A, “Iodo propargylaminoisoxazoles as fungicides” (Shionogi & Co., Ltd., priority 1982, dated 1986)
≈ marks a conversion by molar mass, not a printed value.

How the values were obtained:
fungi = details: prior art, Japanese patent publications; cited from earlier work
Aspergillus fumigatus = assay: Test A-1 Anti-fungal Activity (MIC), microwell dilution; assay type: cell-based; details: in vitro, 1×10^5 cells/ml
Method: (§1) Test A-1 Anti-fungal Activity (MIC)
(§2) The concentration of the test cells was 1×10^5 cells/ml and the activity was measured by a microwell dilution method. The structure of the test compounds is referred to in the Examples.

Candida albicans M-9 = assay: as above; assay type: cell-based; details: M9, C. albicans M-9, in vitro, 1×10^5 cells/ml
Method: as §1, §2

Trichophyton asteroides [1] = assay: as above; assay type: cell-based; details: T. asteroides, in vitro, 1×10^5 cells/ml
Method: as §1
The following results (Table 1) were obtained in an anti-fungal activity test in vitro against Aspergillus fumigatus, Candida albicans M-9 and Trichophyton asteroides. The concentration of the test cells was 1×10^5 cells/ml and the activity was measured by a microwell dilution method. The structure of the test compounds is referred to in the Examples.

Botrytis cinerea = assay: Test B-1 Control Test of Botrytis Rot (Gray Mold) of Cucumber; assay type: in vivo; details: 500 ppm, 3 days
Method: Test B-1 Control Test of Botrytis Rot (Gray Mold) of Cucumber Seedlings of Cucumber (Cultivar: Matsukaze) were planted and grown in soil in vinyl-chloride cups of 9 cm in diameter in a greenhouse. […] The treated cucumbers were kept for 3 days in a greenhouse (20° C.) and then disease degrees were counted. Standard of Evaluation […] (2) A slight soaked lesion on the reverse of the test leaf . . . × 5 (3) A slight fade of the leaf . . . × 10 (4) The inoculated part was faded and the fading expanded erosively . . . × 20 [formula]

Sclerotinia sclerotiorum = assay: Test B-2 Control Test to Sclerotinia Rot of Cucumber; assay type: in vivo; details: 48 h, 2 days, read-out: Percent Disease Control
Method: Test B-2 Control Test to Sclerotinia Rot of Cucumber
Cucumber seedlings were sprayed with 2.5 ml of a test solution in the same manner as in Test B-1. Afterthe spraying, the seedlings were kept at 25°-26° C. for a day and three disks of 4 mm in diameter containing mycelia of Sclerotinia sclerotiorum were put on a primary leaf and then 10 μl of PD broth were dropped on the disks. The treated seedlings were kept ina greenhouse (20° C.) for 2 days and then the diameters of the disease spots were measured by a pair of slide callipers. [formula]

[2] = tested on: Pseudoperonospora cubensis; assay: Test B-3 Control Test to Downy Mildew of Cucumber; assay type: in vivo; details: 500 ppm, 7 days
Method: Test B-3 Control Test to Downy Mildew of Cucumber
Each cucumber seedling was sprayed with 2.5 ml of a test solution in the same manner as in Test B-1. After the spraying, the seedlings were kept at 25°-26° C. for a day and a zoosporangium suspension or Pseudoperonospora cubensis was inoculated at a rate of five spots per leaf on a primary leaf. The treated seedlings were kept in a greenhouse for 7 days and then observed.
(2) Slight disease at the inoculation spot . . . X5
(3) A disease spot in the same size as the inoculation spot (without spreading) . . . x10
(4) A disease spot larger than the inoculation spot . . . x20
Disease degree and percent disease control were calculated in the same manner as in Test B-1.

[3] = tested on: Colletotrichum lagenarium; assay: Test B-4 Control Test to Anthracnose of Cucumber; assay type: in vivo; details: 500 ppm, 3 + 3 days
Method: Test B-4 Control Test to Anthracnose of Cucumber Each cucumber seedling was sprayed with 2.5 ml of a test solution in the same manner as in Test B-1. After the spraying, the seedlings were kept at 25°-26° C. for a day and were inoculated with five filter-paper disks of 6 mm in diameter saturated with a conidium suspension of Colletotrichum lagenarium at a concentration of 1×10^6 conidia/ml. The treated seedlings were kept in a greenhouse (25° C.) for 3 days and further kept at below 25° C. for 3 days. Standard of Evaluation The same as noted in Test B-3.

Sphaerotheca fuliginea = assay: Test B-5 Control Test to Powdery Mildew of Cucumber; assay type: in vivo; details: 500 ppm, 2 weeks
Method: Test B-5 Control Test to Powdery Mildew of Cucumber
Each cucumber seedling was sprayed with 2.5 ml of a test solution. The seedlings were kept at 25°-26° C. for 1 day after the spraying and then sprayed with a conidium (1×10^5 conidia/ml) of Sphaerotheca fuliginea in a 100 ppm spreader solution (containing 20% polyoxyethylene glycol alkyl phenol ether and 12% lignin sulfonate) at a rate of 25 ml/20 cups.
The seedlings were kept in a greenhouse (25° C.) for 2 weeks and then observed.
Standard of Evaluation [formula]
The percent disease control was calculated in the same manner as in Test B-1.

Candida albicans = assay: Test A-2 Anti-fungal Activity (MCC); details: 48 h, read-out: MCC (Minimal Cidal Concentration)
Method: (§3) Some MCC (Minimal Cidal Concentration) values (Table 1) were obtained against Candida albicans and Trichophyton asteroides by the following method. After the MIC value was obtained by the microwell method, a loopful amount was picked up from the medium in which no growth of the fungus was observed, inoculated into a Subrouraud's glucose agar medium and incubated at 28° C. for 2 days in the case of C. albicans and for 7 days in the case of T. asteroides.

Trichophyton asteroides [4] = assay: Test A-2 Anti-fungal Activity (MCC); details: 168 h, read-out: MCC (Minimal Cidal Concentration)
Method: as §3

Mycoplasma gallisepticum = assay: minimum inhibition concentration; assay type: cell-based; details: Mycoplasmoides gallisepticum, one range for the listed compounds
Mycoplasma hyopneumonia = assay: growth inhibition of a swine enzootic pneumonia-causative bacteria; assay type: cell-based; details: one range for the listed compounds, read-out: concentration inhibiting the growth
Pyricularia oryzae = assay type: in vivo; details: 500 ppm; rice plant blast, 24 hours + 7 days

Structure (SMILES) | MIC (Aspergillus fumigatus) [µg/mL] | MIC (Candida albicans M-9) [µg/mL] | MIC (Trichophyton asteroides [1]) [µg/mL] | other results
Cc1cc(OCC#CI)no1 [3-(3-iodo-2-propynyl)oxy-5-methylisoxazole] | – | – | – | anti-fungal activity (fungi): anti-fungal and anti-septic agent for woods
IC#CCOc1noc2ccccc12 [3-(3-iodo-2-propynyloxy)benzisoxazole] | – | – | – | anti-fungal activity (fungi): has the same activity
CCc1noc(N(C)CC#CI)c1Cl [Comp. 1, 3-ethyl-4-chloro-5-(N-methyl-N-3-iodo-2-propynyl)-aminoisoxazole] | 6.3 (≈ 19.4 µM) | 3.1 (≈ 9.55 µM) | 0.8 (≈ 2.46 µM) | Percent Disease Control (Botrytis cinerea): 100%; pest or weed control at 500 ppm (Sclerotinia sclerotiorum): 100%; Percent Disease Control [2]: 100%; Percent Disease Control [3]: 100%; Percent Disease Control (Sphaerotheca fuliginea): 100%
Clc1c(-c2ccccc2)noc1NCC#CI [Comp. 2, 3-phenyl-4-chloro-5-(3-iodo-2-propynyl)aminoisoxazole] | 6.2 (≈ 17.3 µM) | 0.1 (≈ 0.279 µM) | 0.4 (≈ 1.12 µM) | –
Cc1cc(N(C)CC#CI)on1 [Comp. 3] | 0.8 (≈ 2.9 µM) | 0.4 (≈ 1.45 µM) | 1.6 (≈ 5.8 µM) | –
CCN(CC#CI)c1cc(C)no1 [Comp. 4] | 1.6 (≈ 5.52 µM) | 0.8 (≈ 2.76 µM) | 1.6 (≈ 5.52 µM) | MFC (Candida albicans): 25 µg/mL (≈ 86.2 µM); MFC (Trichophyton asteroides [4]): 3.1 µg/mL (≈ 10.7 µM)
CCc1cc(N(C)CC#CI)on1 [Comp. 5] | 1.6 (≈ 5.52 µM) | 0.8 (≈ 2.76 µM) | 1.6 (≈ 5.52 µM) | Percent Disease Control (Botrytis cinerea): 100%; pest or weed control at 500 ppm (Sclerotinia sclerotiorum): 100%; Percent Disease Control [2]: 95.0%; MIC (Mycoplasma gallisepticum): 6.25 to 12.5 µg/mL (≈ 21.5 to 43.1 µM)
CC(C)c1cc(N(C)CC#CI)on1 [Comp. 6] | 1.6 (≈ 5.26 µM) | 0.8 (≈ 2.63 µM) | 1.6 (≈ 5.26 µM) | pest or weed control at 500 ppm (Sclerotinia sclerotiorum): 100%; Percent Disease Control [3]: 100%; MFC (Candida albicans): 25 µg/mL (≈ 82.2 µM); MFC (Trichophyton asteroides [4]): 3.1 µg/mL (≈ 10.2 µM)
CN(CC#CI)c1cc(C2CC2)no1 [Comp. 8] | 1.6 (≈ 5.3 µM) | 0.8 (≈ 2.65 µM) | 3.1 (≈ 10.3 µM) | –
CN(CC#CI)c1cc(C2CCCCC2)no1 [Comp. 9] | – | – | – | Percent Disease Control [2]: 100%; MIC (Mycoplasma hyopneumonia): 3.13 to 12.5 µg/mL (≈ 9.09 to 36.3 µM)
CN(CC#CI)c1cc(-c2ccco2)no1 [Comp. 10] | 1.6 (≈ 4.88 µM) | 0.8 (≈ 2.44 µM) | 0.8 (≈ 2.44 µM) | –
CN(CC#CI)c1cc(-c2cccs2)no1 [Comp. 11] | 3.1 (≈ 9.01 µM) | 0.8 (≈ 2.32 µM) | 1.6 (≈ 4.65 µM) | Percent Disease Control (Botrytis cinerea): 100%; MFC (Candida albicans): 12.5 µg/mL (≈ 36.3 µM); MFC (Trichophyton asteroides [4]): 1.6 µg/mL (≈ 4.65 µM)
CN(CC#CI)c1cc(-c2ccccc2)no1 [Comp. 13] | 3.1 (≈ 9.17 µM) | 3.1 (≈ 9.17 µM) | 3.1 (≈ 9.17 µM) | Percent Disease Control (Pyricularia oryzae): 99%; MIC (Mycoplasma hyopneumonia): 3.13 to 12.5 µg/mL (≈ 9.26 to 37 µM)
